Results as given in US9926281B2 (priority 2014, dated 2018).

Columns and labels:
human TACE = human TACE (Homo sapiens (Human), UniProt P78536); conditions: read-out: TACE potency IC50
human ADAMTS-5 = human ADAMTS-5 (Homo sapiens (Human), UniProt Q9UNA0); conditions: read-out: hADAMTS-5 potency IC50
Sequence of human ADAMTS-5 (Q9UNA0 262-930): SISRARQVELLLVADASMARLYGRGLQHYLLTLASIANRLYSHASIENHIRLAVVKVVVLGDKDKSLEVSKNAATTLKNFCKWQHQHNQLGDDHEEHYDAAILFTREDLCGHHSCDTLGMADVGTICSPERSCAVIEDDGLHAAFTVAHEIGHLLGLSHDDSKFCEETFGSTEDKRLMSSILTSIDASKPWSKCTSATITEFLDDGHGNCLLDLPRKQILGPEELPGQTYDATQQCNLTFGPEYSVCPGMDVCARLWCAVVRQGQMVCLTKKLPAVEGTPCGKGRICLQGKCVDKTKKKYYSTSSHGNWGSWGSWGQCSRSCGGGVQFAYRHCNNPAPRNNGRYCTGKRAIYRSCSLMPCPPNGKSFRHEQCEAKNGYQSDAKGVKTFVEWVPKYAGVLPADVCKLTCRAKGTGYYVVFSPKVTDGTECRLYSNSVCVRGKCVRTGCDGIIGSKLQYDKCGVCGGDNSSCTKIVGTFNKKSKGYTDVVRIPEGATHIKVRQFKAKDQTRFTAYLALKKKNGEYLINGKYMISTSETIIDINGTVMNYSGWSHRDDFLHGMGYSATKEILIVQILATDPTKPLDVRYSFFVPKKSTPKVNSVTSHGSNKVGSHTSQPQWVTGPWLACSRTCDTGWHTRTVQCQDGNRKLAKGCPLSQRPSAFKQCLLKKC
Method: Finally, the fluorescence is read on the Envision (Perkin Elmer) after an incubation of 90 min at 37° C.

Sequence of human TACE (P78536 whole entry, looked up, change not shown): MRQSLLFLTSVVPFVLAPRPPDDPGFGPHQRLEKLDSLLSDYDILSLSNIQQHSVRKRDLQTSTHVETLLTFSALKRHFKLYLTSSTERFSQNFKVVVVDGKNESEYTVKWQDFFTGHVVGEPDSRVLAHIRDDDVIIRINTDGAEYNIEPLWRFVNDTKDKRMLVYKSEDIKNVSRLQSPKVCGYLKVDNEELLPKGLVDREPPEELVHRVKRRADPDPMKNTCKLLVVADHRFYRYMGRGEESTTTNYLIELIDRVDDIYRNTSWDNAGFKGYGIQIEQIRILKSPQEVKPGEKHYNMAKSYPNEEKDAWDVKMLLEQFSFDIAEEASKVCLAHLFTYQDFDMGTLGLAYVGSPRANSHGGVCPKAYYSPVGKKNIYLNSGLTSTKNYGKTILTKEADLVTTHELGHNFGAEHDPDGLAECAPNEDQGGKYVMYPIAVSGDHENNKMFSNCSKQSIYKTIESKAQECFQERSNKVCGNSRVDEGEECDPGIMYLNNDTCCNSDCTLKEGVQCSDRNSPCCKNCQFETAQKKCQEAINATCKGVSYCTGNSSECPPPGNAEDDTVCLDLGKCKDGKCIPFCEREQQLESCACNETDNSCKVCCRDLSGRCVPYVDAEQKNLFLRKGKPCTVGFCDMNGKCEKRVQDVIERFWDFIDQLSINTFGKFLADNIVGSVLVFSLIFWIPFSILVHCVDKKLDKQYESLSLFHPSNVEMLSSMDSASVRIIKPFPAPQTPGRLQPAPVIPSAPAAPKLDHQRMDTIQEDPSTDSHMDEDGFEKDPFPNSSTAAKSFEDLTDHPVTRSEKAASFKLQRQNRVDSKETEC

Structure (SMILES) | IC50 (human TACE) | IC50 (human ADAMTS-5)
C[C@H]1CN(C(=O)CCC2(c3ccn(C)n3)NC(=O)NC2=O)CCN1c1cc(F)cc(F)c1 (stereo partly drawn) [compound 394, 5-[3-[(3S)-4-(3,5-difluorophenyl)-3-methyl-piperazin-1-yl]-3-oxo-propyl]-5-(1-methylpyrazol-3-yl)imidazolidine-2,4-dione] | > 20 µM | 0.049 µM
C[C@H]1CN(C(=O)CCC2(c3cnccn3)NC(=O)NC2=O)CCN1c1ccc(F)c(Cl)c1 (stereo partly drawn) [compound 349, 5-[3-[(3S)-4-(3-chloro-4-fluoro-phenyl)-3-methyl-piperazin-1-yl]-3-oxo-propyl]-5-pyrazin-2-yl-imidazolidine-2,4-dione] | > 4 µM | 0.062 µM
COC[C@]1(CC(C)C(=O)N2CCN(c3cc(F)cc(-c4cn[nH]c4)c3)[C@@H](C)C2)NC(=O)NC1=O (stereo partly drawn) [compound 376, 5-[3-[(3S)-4-[3-fluoro-5-(1H-pyrazol-4-yl)phenyl]-3-methyl-piperazin-1-yl]-2-methyl-3-oxo-propyl]-5-(methoxymethyl)imidazolidine-2,4-dione] | 2.43 µM | 0.052 µM
COC[C@]1(C[C@H](C)C(=O)N2CCN(c3cccc(-c4cn[nH]c4)c3)[C@@H](C)C2)NC(=O)NC1=O [compound 380, 5-(methoxymethyl)-5-[2-methyl-3-[(3S)-3-methyl-4-[3-(1H-pyrazol-4-yl)phenyl]piperazin-1-yl]-3-oxo-propyl]imidazolidine-2,4-dione] | > 4 µM | 0.047 µM
C[C@H]1CN(C(=O)CCC2(C3CC3)NC(=O)NC2=O)CCN1c1cccc2c1ccn2C (stereo partly drawn) [compound 328, 5-cyclopropyl-5-[3-[(3S)-3-methyl-4-(1-methylindol-4-yl)piperazin-1-yl]-3-oxo-propyl]imidazolidine-2,4-dione] | > 20 µM | > 4 µM
COCC1(CC(C)C(=O)N2CCN(c3ccc(Cl)c(C(F)(F)F)c3)[C@@H](C)C2)NC(=O)NC1=O (stereo partly drawn) [compound 478, 5-{3-[(S)-4-(4-Chloro-3-trifluoromethyl-phenyl)-3-methyl-piperazin-1-yl]-2-methyl-3-oxo-propyl}-5-methoxymethyl-imidazolidine-2,4-dione] | > 4 µM | 0.061 µM
Cc1cc(N2CCN(C(=O)C(C)CC3(C4CC4)NC(=O)NC3=O)C[C@@H]2C)ccc1F (stereo partly drawn) [compound 456, 5-cyclopropyl-5-(3-((S)-4-(4-fluoro-3-methylphenyl)-3-methylpiperazin-1-yl)-2-methyl-3-oxopropyl)imidazolidine-2,4-dione] | > 4 µM | 0.027 µM
Cc1ccc(N2CCN(C(=O)CCC3(C4CC4)NC(=O)NC3=O)C[C@@H]2C)cc1Cl (stereo partly drawn) [compound 306, 5-[3-[(3S)-4-(3-chloro-4-methyl-phenyl)-3-methyl-piperazin-1-yl]-3-oxo-propyl]-5-cyclopropyl-imidazolidine-2,4-dione] | > 4 µM | 0.067 µM
C[C@H]1CN(C(=O)CCC2(c3ccccn3)NC(=O)NC2=O)CCN1c1cc(Cl)cc(Cl)c1 (stereo partly drawn) [compound 459, 5-[3-[(3S)-4-(3,5-dichlorophenyl)-3-methyl-piperazin-1-yl]-3-oxo-propyl]-5-(2-pyridyl)imidazolidine-2,4-dione] | 1.74 µM | 0.046 µM
CC(CC1NC(=O)NC1=O)C(=O)N1CCN(c2ccc(F)c(Cl)c2)[C@@H](C)C1 (stereo partly drawn) [compound 441, 5-(3-((S)-4-(3-chloro-4-fluorophenyl)-3-methylpiperazin-1-yl)-2-methyl-3-oxopropyl)imidazolidine-2,4-dione] | > 20 µM | 0.059 µM
Cc1nc(C2(CCC(=O)N3CCN(c4cc(F)cc(F)c4)[C@@H](C)C3)NC(=O)NC2=O)co1 (stereo partly drawn) [compound 395, 5-[3-[(3S)-4-(3,5-difluorophenyl)-3-methyl-piperazin-1-yl]-3-oxo-propyl]-5-(2-methyloxazol-4-yl)imidazolidine-2,4-dione] | > 20 µM | 0.039 µM
C[C@H]1CN(C(=O)CCC2(C3CC3)NC(=O)NC2=O)CCN1c1cc(Cl)ncn1 (stereo partly drawn) [compound 256, 5-[3-[(3S)-4-(6-chloropyrimidin-4-yl)-3-methyl-piperazin-1-yl]-3-oxo-propyl]-5-cyclopropyl-imidazolidine-2,4-dione] | > 20 µM | 1.41 µM
Cc1ccc(C2(CCC(=O)N3CCN(c4cccc(F)c4)[C@@H](C)C3)NC(=O)NC2=O)cn1 (stereo partly drawn) [compound 385, 5-[3-[(3S)-4-(3-fluorophenyl)-3-methyl-piperazin-1-yl]-3-oxo-propyl]-5-(6-methyl-3-pyridyl)imidazolidine-2,4-dione] | > 4 µM | 0.071 µM
C[C@H]1CN(C(=O)CCC2(c3ccccn3)NC(=O)NC2=O)CCN1c1ccc(Cl)c(Cl)c1 (stereo partly drawn) [compound 458, 5-[3-[(3S)-4-(3,4-dichlorophenyl)-3-methyl-piperazin-1-yl]-3-oxo-propyl]-5-(2-pyridyl)imidazolidine-2,4-dione] | 2.38 µM | 0.021 µM
Cc1cc(-c2cccc(N3CCN(C(=O)CCC4(C5CC5)NC(=O)NC4=O)C[C@@H]3C)c2)ccn1 (stereo partly drawn) [compound 329, 5-cyclopropyl-5-[3-[(3S)-3-methyl-4-[3-(2-methyl-4-pyridyl)phenyl]piperazin-1-yl]-3-oxo-propyl]imidazolidine-2,4-dione] | > 20 µM | 0.134 µM
C[C@H]1CN(C(=O)CCC2(c3cccnc3)NC(=O)NC2=O)CCN1c1ccc(Cl)c(F)c1 (stereo partly drawn) [compound 315, 5-[3-[(3S)-4-(4-chloro-3-fluoro-phenyl)-3-methyl-piperazin-1-yl]-3-oxo-propyl]-5-(3-pyridyl)imidazolidine-2,4-dione] | > 4 µM | 0.042 µM
C[C@H]1CN(C(=O)CCC2(c3cocn3)NC(=O)NC2=O)CCN1c1cc(Cl)cc(Cl)c1 (stereo partly drawn) [compound 465, 5-[3-[(3S)-4-(3,5-dichlorophenyl)-3-methyl-piperazin-1-yl]-3-oxo-propyl]-5-oxazol-4-yl-imidazolidine-2,4-dione] | 3.5 µM | 0.062 µM
C[C@H]1CN(C(=O)CCC2(C3CC3)NC(=O)NC2=O)CCN1c1ccc(F)c(-c2cn[nH]c2)c1 (stereo partly drawn) [compound 340, 5-cyclopropyl-5-[3-[(3S)-4-[4-fluoro-3-(1H-pyrazol-4-yl)phenyl]-3-methyl-piperazin-1-yl]-3-oxo-propyl]imidazolidine-2,4-dione] | > 4 µM | 0.155 µM
C[C@H]1CN(C(=O)CCC2(C3CC3)NC(=O)NC2=O)CCN1c1cccc(-c2ccnn2C)c1 (stereo partly drawn) [compound 368, 5-cyclopropyl-5-[3-[(3S)-3-methyl-4-[3-(2-methylpyrazol-3-yl)phenyl]piperazin-1-yl]-3-oxo-propyl]imidazolidine-2,4-dione] | > 20 µM | 0.257 µM
C[C@H]1CN(C(=O)CCC2(C3CC3)NC(=O)NC2=O)CCN1c1ccn(C)n1 (stereo partly drawn) [compound 374, 5-cyclopropyl-5-[3-[(3S)-3-methyl-4-(1-methylpyrazol-3-yl)piperazin-1-yl]-3-oxo-propyl]imidazolidine-2,4-dione] | > 20 µM | 3.08 µM
C[C@@H](C[C@@]1(C2CC2)NC(=O)NC1=O)C(=O)N1CCN(c2cc(F)cc(-c3cn[nH]c3)c2)[C@@H](C)C1 [Cpd 379, 5-cyclopropyl-5-[3-[(3S)-4-[3-fluoro-5-(1H-pyrazol-4-yl)phenyl]-3-methyl-piperazin-1-yl]-2-methyl-3-oxo-propyl]imidazolidine-2,4-dione] | 1.49 µM | 0.018 µM
C[C@H]1CN(C(=O)CCC2(C3CC3)NC(=O)NC2=O)CCN1c1cccc(-c2ccc(Cl)nn2)c1 (stereo partly drawn) [compound 381, 5-[3-[(3S)-4-[3-(6-chloropyridazin-3-yl)phenyl]-3-methyl-piperazin-1-yl]-3-oxo-propyl]-5-cyclopropyl-imidazolidine-2,4-dione] | > 20 µM | 1.97 µM
Cc1ncccc1-c1cccc(N2CCN(C(=O)CCC3(C4CC4)NC(=O)NC3=O)C[C@@H]2C)c1 (stereo partly drawn) [compound 323, 5-cyclopropyl-5-[3-[(3S)-3-methyl-4-[3-(2-methyl-3-pyridyl)phenyl]piperazin-1-yl]-3-oxo-propyl]imidazolidine-2,4-dione] | > 4 µM | 1.24 µM
CC(CC1(c2ccccn2)NC(=O)NC1=O)C(=O)N1CCN(c2ccc(F)c(F)c2)[C@@H](C)C1 (stereo partly drawn) [compound 264, 5-[3-[(3S)-4-(3,4-difluorophenyl)-3-methyl-piperazin-1-yl]-2-methyl-3-oxo-propyl]-5-(2-pyridyl)imidazolidine-2,4-dione] | > 4 µM | 0.019 µM
C[C@H]1CN(C(=O)CCC2(C3CC3)NC(=O)NC2=O)CCN1c1ccc2cnn(C)c2c1 (stereo partly drawn) [compound 341, 5-cyclopropyl-5-[3-[(3S)-3-methyl-4-(1-methylindazol-6-yl)piperazin-1-yl]-3-oxo-propyl]imidazolidine-2,4-dione] | 0.885 µM | 0.264 µM
Cc1ccc(C2(CCC(=O)N3CCN(c4cc(F)cc(F)c4)[C@@H](C)C3)NC(=O)NC2=O)cn1 (stereo partly drawn) [compound 386, 5-[3-[(3S)-4-(3,5-difluorophenyl)-3-methyl-piperazin-1-yl]-3-oxo-propyl]-5-(6-methyl-3-pyridyl)imidazolidine-2,4-dione] | > 4 µM | 0.048 µM
CCC1(CC(C)C(=O)N2CCN(c3cncc(F)c3)[C@@H](C)C2)NC(=O)NC1=O (stereo partly drawn) [compound 360, 5-ethyl-5-[3-[(3S)-4-(5-fluoro-3-pyridyl)-3-methyl-piperazin-1-yl]-2-methyl-3-oxo-propyl]imidazolidine-2,4-dione] | > 20 µM | 0.119 µM
COc1cccc(C2(CCC(=O)N3CCN(c4cc(F)cc(F)c4)[C@@H](C)C3)NC(=O)NC2=O)n1 (stereo partly drawn) [compound 336, 5-[3-[(3S)-4-(3,5-difluorophenyl)-3-methyl-piperazin-1-yl]-3-oxo-propyl]-5-(6-methoxy-2-pyridyl)imidazolidine-2,4-dione] | > 4 µM | 0.074 µM
C[C@H]1CN(C(=O)CCC2(C3CC3)NC(=O)NC2=O)CCN1c1cncnc1 (stereo partly drawn) [compound 304, 5-cyclopropyl-5-[3-[(3S)-3-methyl-4-pyrimidin-5-yl-piperazin-1-yl]-3-oxo-propyl]imidazolidine-2,4-dione] | > 20 µM | > 4 µM
